Biological target: T1, androgen receptor (Homo sapiens, UniProt P10275)
T1 sequence (P10275 1-920 Q868H): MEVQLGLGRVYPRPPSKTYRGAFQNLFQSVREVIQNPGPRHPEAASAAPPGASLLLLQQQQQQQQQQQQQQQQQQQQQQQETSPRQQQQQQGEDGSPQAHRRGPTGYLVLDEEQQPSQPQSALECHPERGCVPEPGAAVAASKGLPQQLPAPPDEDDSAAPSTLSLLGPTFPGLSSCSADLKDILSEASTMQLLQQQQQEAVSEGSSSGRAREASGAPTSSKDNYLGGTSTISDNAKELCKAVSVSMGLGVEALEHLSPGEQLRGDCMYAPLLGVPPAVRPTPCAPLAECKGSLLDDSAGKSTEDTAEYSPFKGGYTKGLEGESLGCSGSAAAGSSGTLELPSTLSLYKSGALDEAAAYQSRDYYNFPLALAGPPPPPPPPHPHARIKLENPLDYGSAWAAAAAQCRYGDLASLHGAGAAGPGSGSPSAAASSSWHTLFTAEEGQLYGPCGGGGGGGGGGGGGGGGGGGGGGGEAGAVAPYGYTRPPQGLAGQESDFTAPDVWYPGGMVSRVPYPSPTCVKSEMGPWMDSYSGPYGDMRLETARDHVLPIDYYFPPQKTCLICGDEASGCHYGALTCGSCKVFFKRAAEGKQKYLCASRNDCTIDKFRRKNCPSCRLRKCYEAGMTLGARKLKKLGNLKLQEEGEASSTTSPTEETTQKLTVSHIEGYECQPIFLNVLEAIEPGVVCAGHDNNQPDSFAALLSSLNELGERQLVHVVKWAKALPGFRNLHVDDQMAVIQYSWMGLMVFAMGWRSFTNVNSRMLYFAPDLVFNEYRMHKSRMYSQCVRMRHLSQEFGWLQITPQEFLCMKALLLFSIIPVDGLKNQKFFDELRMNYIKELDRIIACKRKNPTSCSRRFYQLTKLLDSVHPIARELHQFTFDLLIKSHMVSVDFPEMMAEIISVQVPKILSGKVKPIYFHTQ
Assay: AR Antagonist Cell Assay (MMTV-luciferase reporter, DHT-induced)
Type: cell-based
Details: MDA-MB453-MMTV clone 54-19 cells, 100 pM DHT, 17 hr
Description: The compounds ability to antagonize the effects of androgen on the androgen receptor were determined in the protocol described immediately below.
Experimental Procedure for AR Antagonist Cell Assay
Cell line: MDA-MB453-MMTV clone 54-19. This cell line is a stable transfected cell line with MDA-MB453 cell background (human breast tumor cell expressing high level of androgen receptor). A MMTV minimal promoter containing ARE was first cloned in front of a firefly luciferase reporter gene. Then the cascade was cloned into transfection vector pUV120puro. Electroporation method was used for transfecting MDA-MB-453 cell. Puromycin resistant stable cell line was selected.
Cell Culture Media and Reagents:
Culture medium: DMEM (high glucose, Gibco cat #: 11960-044), 10% FBS, and 1% L-glutamine
Plating medium: DMEM (phenol red free), 10% charcoal treated HyClone serum, 1% L-glutamine
Assay medium: DMEM (phenol red free), 1% charcoal treated HyClone serum, 1% L-glutamine, and 1% penicillin/streptomycin
3× luciferase buffer: 2% beta-mercaptoethanol, 0.6% ATP, 0.0135% luciferine in cell lysis buffer
• 1. Cells are maintained in culture medium, splitting cells when they reach 80–90% confluence • 2. To test compounds, 10,000 cells/well are plated to opaque 96 cell culture plate in 100 ul/well plating medium, culture for overnight at 37° C. in cell culture incubator • 3. Carefully remove plating medium, then add 80 ul/well of pre-warmed assay medium, add 10 ul/well testing compound (final concentration at 10 uM or 1 uM), incubate at 37° C. for 30 minutes • 4. Add 10 ul/well freshly prepared DHT (final concentration at 100 pM) to each well, incubate at 37° C. for 17 hr (overnight) • 5. Add 50 ul/well 3× luciferase buffer, incubate at room temperature for 5 minutes, then count on Luminometer The fold induction over background by 100 pM DHT in the absence of testing compounds is standardized as 100% and experimental result is expressed as percentage of inhibition by testing compounds. TABLE3

Cn1c(=O)cc(C(F)(F)F)c2cc(S(=O)(=O)Nc3cnc4ccccc4c3)ccc21 [Example 33, 1-Methyl-2-oxo-4-trifluoromethyl-1,2-dihydroquinoline-6-sulfonicacid quinolin-3-ylamide]
IC50: > 10 µM

Cn1c(=O)cc(C(F)(F)F)c2cc(S(=O)(=O)Nc3cccc4cccnc34)ccc21 [Example 34, 1-Methyl-2-oxo-4-trifluoromethyl-1,2-dihydroquinoline-6-sulfonicacid quinolin-8-ylamide]
IC50: > 10 µM

CSc1n[nH]c(NS(=O)(=O)c2ccc3c(c2)c(C(F)(F)F)cc(=O)n3C)c1C#N [Example 35, 1-Methyl-2-oxo-4-trifluoromethyl-1,2-dihydroquinoline-6-sulfonicacid (4-cyano-5-methylsulfanyl-2H-pyrazol-3-yl)amide]
IC50: > 10 µM

COc1cc(NS(=O)(=O)c2ccc3c(c2)c(C(F)(F)F)cc(=O)n3C)cc(OC)c1 [Example 36, 1-Methyl-2-oxo-4-trifluoromethyl-1,2-dihydroquinoline-6-sulfonicacid (3,5-dimethoxyphenyl)-amide]
IC50: 2.72 µM

CC(C)Oc1cccc(NS(=O)(=O)c2ccc3c(c2)c(C(F)(F)F)cc(=O)n3C)c1 [Example 37, 1-Methyl-2-oxo-4-trifluoromethyl-1,2-dihydroquinoline-6-sulfonicacid (3-isopropoxyphenyl)-amide]
IC50: 6.1 µM

Cn1c(=O)cc(C(F)(F)F)c2cc(S(=O)(=O)Nc3cccc(OC(F)F)c3)ccc21 [Example 38, 1-Methyl-2-oxo-4-trifluoromethyl-1,2-dihydroquinoline-6-sulfonicacid (3-difluoromethoxy-phenyl)amide]
IC50: 5.63 µM

Cn1c(=O)cc(C(F)(F)F)c2cc(S(=O)(=O)Nc3cccc(C(F)(F)F)c3)ccc21 [Example 39, 1-Methyl-2-oxo-4-trifluoromethyl-1,2-dihydroquinoline-6-sulfonicacid (3-trifluoromethylphenyl)-amide]
IC50: 0.93 µM

Cc1cc(=O)oc2cc(NS(=O)(=O)c3ccc4c(c3)c(C(F)(F)F)cc(=O)n4C)ccc12 [Example 40, 1-Methyl-2-oxo-4-trifluoromethyl-1,2-dihydroquinoline-6-sulfonic(4-methyl-2-oxo-2H-chromen-7-yl)amide]
IC50: > 10 µM

Cn1c(=O)cc(C(F)(F)F)c2cc(S(=O)(=O)Nc3cccc(OC(F)(F)F)c3)ccc21 [Example 41, 1-Methyl-2-oxo-4-trifluoromethyl-1,2-dihydroquinoline-6-sulfonicacid (3-trifluoromethoxy-phenyl)amide]
IC50: 3.86 µM

CCOC(=O)Cc1ccc(NS(=O)(=O)c2ccc3c(c2)c(C(F)(F)F)cc(=O)n3C)cc1 [Example 42, [4-(1-Methyl-2-oxo-4-trifluoromethyl-1,2-dihydroquinoline-6-sulfonylamino)phenyl]aceticacid ethyl ester]
IC50: > 10 µM

Cn1c(=O)cc(C(F)(F)F)c2cc(S(=O)(=O)Nc3cccc(Cc4ccccc4)c3)ccc21 [Example 43, 1-Methyl-2-oxo-4-trifluoromethyl-1,2-dihydroquinoline-6-sulfonicacid (3-benzylphenyl)amide]
IC50: > 10 µM

CCOc1ccc(NS(=O)(=O)c2ccc3c(c2)c(C(F)(F)F)cc(=O)n3C)cc1 [Example 44, 1-Methyl-2-oxo-4-trifluoromethyl-1,2-dihydroquinoline-6-sulfonicacid (4-ethoxyphenyl)amide]
IC50: 3.76 µM

Cn1c(=O)cc(C(F)(F)F)c2cc(S(=O)(=O)Nc3cc(C(C)(C)C)cc(C(C)(C)C)c3)ccc21 [Example 45, 1-Methyl-2-oxo-4-trifluoromethyl-1,2-dihydroquinoline-6-sulfonicacid (3,5-di-tert-butylphenyl)amide]
IC50: > 10 µM

COc1ccc(N(Cc2ccccc2)S(=O)(=O)c2ccc3c(c2)c(C(F)(F)F)cc(=O)n3C)cc1 [Example 46, 1-Methyl-2-oxo-4-trifluoromethyl-1,2-dihydroquinoline-6-sulfonicacid benzyl(4-methoxy-phenyl)amide]
IC50: > 10 µM

Cn1c(=O)cc(C(F)(F)F)c2cc(S(=O)(=O)Nc3ccc(-n4ccc(C(F)(F)F)n4)cc3)ccc21 [Example 47, 1-Methyl-2-oxo-4-trifluoromethyl-1,2-dihydroquinoline-6-sulfonicacid [4-(3-trifluoromethylpyrazol-1-yl)phenyl]amide]
IC50: 2.96 µM

COc1cccc(NS(=O)(=O)c2ccc3c(c2)c(C(F)(F)F)cc(=O)n3C)c1 [Example 48, 1-Methyl-2-oxo-4-trifluoromethyl-1,2-dihydroquinoline-6-sulfonicacid (3-methoxyphenyl)amide]
IC50: 1.13 µM

Cn1c(=O)cc(C(F)(F)F)c2cc(S(=O)(=O)NCCC(C)(C)C)ccc21 [Example 49, 1-Methyl-2-oxo-4-trifluoromethyl-1,2-dihydroquinoline-6-sulfonicacid (3,3-dimethylbutyl)amide]
IC50: > 10 µM

Cn1c(=O)cc(C(F)(F)F)c2cc(S(=O)(=O)NCCc3ccccc3)ccc21 [Example 50, 1-Methyl-2-oxo-4-trifluoromethyl-1,2-dihydroquinoline-6-sulfonicacid phenethylamide]
IC50: 1.55 µM

Cc1ccc(CNS(=O)(=O)c2ccc3c(c2)c(C(F)(F)F)cc(=O)n3C)cc1 [Example 51, 1-Methyl-2-oxo-4-trifluoromethyl-1,2-dihydroquinoline-6-sulfonicacid 4-methylbenzylamide]
IC50: > 10 µM

Cc1ccccc1CNS(=O)(=O)c1ccc2c(c1)c(C(F)(F)F)cc(=O)n2C [Example 52, 1-Methyl-2-oxo-4-trifluoromethyl-1,2-dihydroquinoline-6-sulfonicacid 2-methylbenzylamide]
IC50: > 10 µM

Cn1c(=O)cc(C(F)(F)F)c2cc(S(=O)(=O)NCCC3=CCCCC3)ccc21 [Example 53, 1-Methyl-2-oxo-4-trifluoromethyl-1,2-dihydroquinoline-6-sulfonicacid (2-cyclohex-1-enylethyl)amide]
IC50: 1.84 µM

Cn1c(=O)cc(C(F)(F)F)c2cc(S(=O)(=O)NCCc3cccs3)ccc21 [Example 54, 1-Methyl-2-oxo-4-trifluoromethyl-1,2-dihydroquinoline-6-sulfonicacid (2-thiophen-2-ylethyl)amide]
IC50: 5.68 µM

Cn1c(=O)cc(C(F)(F)F)c2cc(S(=O)(=O)NC3CCc4ccccc43)ccc21 (stereo not drawn) [Example 55, 1-Methyl-2-oxo-4-trifluoromethyl-1,2-dihydroquinoline-6-sulfonicacid indan-1-ylamide]
IC50: 4.31 µM

CC(CNS(=O)(=O)c1ccc2c(c1)c(C(F)(F)F)cc(=O)n2C)c1ccccc1 (stereo not drawn) [Example 56, 1-Methyl-2-oxo-4-trifluoromethyl-1,2-dihydroquinoline-6-sulfonicacid (2-phenylpropyl)amide]
IC50: 2.73 µM

Cn1c(=O)cc(C(F)(F)F)c2cc(S(=O)(=O)NCCCCc3ccccc3)ccc21 [Example 57, 1-Methyl-2-oxo-4-trifluoromethyl-1,2-dihydroquinoline-6-sulfonicacid (4-phenylbutyl)amide]
IC50: > 10 µM

COc1ccccc1CCNS(=O)(=O)c1ccc2c(c1)c(C(F)(F)F)cc(=O)n2C [Example 58, 1-Methyl-2-oxo-4-trifluoromethyl-1,2-dihydroquinoline-6-sulfonicacid [2-(2-methoxyphenyl)ethyl]amide]
IC50: 5.4 µM

Cn1c(=O)cc(C(F)(F)F)c2cc(S(=O)(=O)NCc3cc(Cl)ccc3F)ccc21 [Example 59, 1-Methyl-2-oxo-4-trifluoromethyl-1,2-dihydroquinoline-6-sulfonicacid 5-chloro-2-fluorobenzylamide]
IC50: > 10 µM
